For series [1] the following is noted: in vivo; cited from earlier work.
The target in series [2] is T1, oligomeric amyloid-β / PrP^c interaction (Homo sapiens, UniProt P04156). The format is binding.
In series [3] the target is T1, oligomeric amyloid-β / PrP^c interaction. Particulars: cited from earlier work.
The subject of series [4] is human purified monocytes. In words: Stimulated IL-6 release from human purified monocytes (ELISA). As to conditions: 24 h, LMW-DS 60-600 µg/ml, heparin 2.0-20 µg/ml, dexamethasone 3.0 µM. In kind it is cell-based. On the procedure: Peripheral blood mononuclear cells (PBMC) were isolated from healthy donors through Ficoll-Paque PLUS (GE Healthcare; 11778538) density centrifugation. Monocytes were purified using the EasySep™ human monocyte enrichment kit (StemCell) that purifies monocytes ‘untouched’ to maintain their phenotype.
Monocytes were cultured in the absence (unstimulated PBS vehicle controls) or presence of stimulation (LPS or peptidoglycan) in the absence (vehicle) or presence of LMW-DS (Tikomed AB, Viken, Sweden, WO 2016/076780; three concentrations; top concentration 600 µg/ml, 200 µg/ml and 60 µg/ml), heparin (2.0, 6.0 or 20 µg/ml; equivalent to 0.406, 1.218 and 4.06 units/ml; Sigma Aldrich) or dexamethasone (3.0 µM; Sigma Aldrich) for 24 hours at 37° C., 5% CO2. Following centrifugation, cell culture supernatants were removed and stored at -20° C. awaiting analysis for IL-6 by ELISA. Levels of IL-6 were quantified in the supernatant by ELISA (R&D systems) according to manufacturer’s instructions.
On the technique in general: An ELISA detects its analyte on a solid surface through an enzyme-linked reagent.

The test system of series [5] is mouse model of muscle atrophy. As to conditions: after 2 weeks of treatment; cited from earlier work.

For adalimumab, the half-life result in series [1] is recorded as “around 14 days”.
In the case of certolizumab, the half-life entry in series [1] is given as “around 14 days”.
dextran: the “competition for the protein-protein interaction between oligomeric amyloid-β and PrP^c” value in series [2] is “failed to compete appreciably”.
Turning to dextran sulphate sodium salt [DSSS], in series [2], the “Competable binding (%)” value is recorded as 101±2%, the Hill coefficient was found to be 1.51±0.06 and the “IC50” value is 0.62 ± 0.07 µg/mL. Also, the “effective concentrations to compete with the amyloid-β / PrP^c interaction” value in series [3] is given as “low µg/ml range”.
As to heparin [reference compound], the “LPS-stimulated IL-6 release” value in series [4] (LPS 0.01 ng/ml) is recorded as “concentration dependent statistically significant enhancement”. In addition, the “peptidoglycan-stimulated IL-6 release” value in series [4] (peptidoglycan 30 ng/ml) is “did not reach statistical significance”.
For the substance infliximab, the half-life result in series [1] is on record as “around 14 days”.
Take “recombinant HGF: recombinant hepatocyte growth factor”: the “increase in muscle mass” value in series [5] is 18%.

For orientation: Hill coefficient means the slope factor of the fitted curve. The term IC50 denotes the midpoint of a concentration-inhibition curve. Low readings indicate greater potency, high ones weaker potency.

The values above are taken from patent publication US20230346827A1 (priority 2020, published 2023).
